{"source": "patent US20200325156A1", "about": "“HETEROARYL AMIDE COMPOUNDS, PREPARATION METHOD THEREFOR, PHARMACEUTICAL COMPOSITIONS THEREOF, AND APPLICATIONS THEREOF” (Rui Jin Hospital Affiliated to Shanghai Jiao Tong …, priority 2017, published 2020)", "type_in_all_cases": "cell-based", "key": {"[1]": {"test_system": "Human lung cancer cells A549", "assay": "MTS cell growth inhibition, A549", "protocol": "(§1) 1) Medium: DMEM (Dulbecco's modified eagle medium) or RPMI1640 (containing 10% fetal bovine serum, 100 μg/mL ampicillin, 100 μg/mL streptomycin).\n(§2) 2) Reagent: MTS reaction solution (containing 2 mg/mL of MTS (3-(4,5-dimethylthiazol-2-yl)-5-(3-carboxymethoxyphenyl)-2-(4-sulfophenyl)-2H-tetrazolium, inner salt); 100 μg/mL PES ([…])).\n(§3) Human promyelocytic leukemia cells HL-60 (2×10^4 cells/well) cultured in vitro were incubated into a 96-well culture plate, the volume of cell-culture medium was 90 μL, and then 10 μL of the compound at each gradient concentration was added (the highest concentration was 10 μM, which was diluted stepwise by ⅓, and 8 concentration points were set in total; the system contained 0.1% DMSO (dimethyl sulfoxide)). The cell plate with uniformly mixed compound was cultured in a cell culture incubator (37° C.; 5% CO2) for 48 h, then 20 μμL of MTS reaction solution was added, uniformly mixed and incubated in the cell culture incubator (37° C.; 5% CO2) for 1-4 hr; OD values at 490 nm were measured by a microplate reader (VARIOSKAN FLASH, Thermo). Three parallels were set in each group of experiments, with 0.1% (a final concentration) DMSO as a negative control, and a medium without cells and compounds as a blank control. The cell growth inhibition rate was calculated by the following formula:\n(§4) Cell growth inhibition rate%=1−(ODexperimental group−ODblank group)/(ODnegative group−ODblank group)×100%\n(§5) 4) IC50 calculation: The semi-inhibitory concentration of the compound acting on cell was calculated using GradPad Prism 5 software according to the measured cell growth inhibition rate.\n(§6) Human lung cancer cells A549, human gastric cancer cells BGC-823, human liver cancer cells HepG-2 and human breast cancer cells MCF-7, human osteosarcoma cells U2OS, human prostate cancer cells LNCAP cultured in vitro were added in a 96-well culture plate at 1,000-10,000 cells/well, incubated until adherence, and then the compound was added. As to other procedures, please refer to the method (1) above."}, "[2]": {"test_system": "human gastric cancer cells BGC-823", "assay": "MTS cell growth inhibition, BGC-823", "conditions": "compound concentration 10 μM, 48 h, read-out: Inhibition rate against BGC-823 at 10 μM (%)", "protocol": "as §1, §2, §3, §4, §5, §6"}, "[3]": {"test_system": "human liver cancer cells HepG-2", "assay": "MTS cell growth inhibition, HepG-2", "conditions": "HepG2, compound concentration 10 μM, 48 h, read-out: Inhibition rate against HepG-2 at 10 μM (%)", "protocol": "as §1, §2, §3, §4, §5, §6"}, "[4]": {"test_system": "human breast cancer cells MCF-7", "assay": "MTS cell growth inhibition, MCF-7", "conditions": "MCF7, compound concentration 10 μM, 48 h, read-out: Inhibition rate against MCF-7 at 10 μM (%)", "protocol": "as §1, §2, §3, §4, §5, §6"}, "[5]": {"test_system": "Human promyelocytic leukemia cells HL-60", "assay": "MTS cell growth inhibition, HL-60", "conditions": "Homo sapiens, HL-60; compound concentration 10 μM; 48 h; MTS; read-out: Inhibition rate against HL-60 at 10 μM (%)", "protocol": "as §1, §2, §3, §4, §5"}, "[6]": {"test_system": "human osteosarcoma cells U2OS", "assay": "MTS cell growth inhibition, U2OS", "conditions": "Homo sapiens, U2OS; compound concentration 10 μM; 48 h; MTS; read-out: Inhibition rate against U2OS at 10 μM (%)", "protocol": "as §1, §2, §3, §4, §5, §6"}, "[7]": {"test_system": "human prostate cancer cells LNCAP", "assay": "MTS cell growth inhibition, LNCAP", "conditions": "Homo sapiens, LNCaP; compound concentration 10 μM; 48 h; MTS; read-out: Inhibition rate against LNCAP at 10 μM (%)", "protocol": "as §1, §2, §3, §4, §5, §6"}, "[8]": {"test_system": "lung cancer cell line NCI-1975", "assay": "Growth inhibitory activity, NCI-1975", "conditions": "growth inhibition; read-out: Lung cancer cells IC50 NCI-1975"}, "[9]": {"test_system": "lung cancer cell line HCC827", "assay": "Growth inhibitory activity, HCC827", "conditions": "Homo sapiens, growth inhibition, read-out: Lung cancer cells IC50 HCC827"}, "[10]": {"test_system": "human embryo lung cell line WI-38", "assay": "Growth inhibitory activity, WI-38", "conditions": "growth inhibition, normal cells"}, "[11]": {"test_system": "human embryo lung cell line HFL-1", "assay": "Growth inhibitory activity, HFL-1", "conditions": "HFL1, growth inhibition, normal cells"}, "[12]": {"test_system": "leukemia cell line SHI-1", "assay": "Growth inhibitory activity, SHI-1", "conditions": "growth inhibition; read-out: Leukemia cells IC50 SHI-1"}, "[13]": {"test_system": "leukemia cell line THP-1", "assay": "Growth inhibitory activity, THP-1", "conditions": "Homo sapiens, growth inhibition, read-out: Leukemia cells IC50 THP-1"}, "[14]": {"test_system": "leukemia cell line NB-4", "assay": "Growth inhibitory activity, NB4", "conditions": "growth inhibition; read-out: Leukemia cells IC50 NB4"}, "[15]": {"test_system": "tumor cells (NCI-1975, HCC827, A549, SHI-1, THP-1, NB-4)", "assay": "Growth inhibition of tumor cells (summary over cell lines)", "conditions": "range over lung cancer and leukemia cell lines", "protocol": "as §1, §2\nas §3, with “Three parallels were set in each group of experiments, with 0.1% (a final concentration) DMSO as a negative control, and a medium without cells and compounds as a blank control.” left out, “formula: […]” for “formula:”\n4) IC50 calculation: The semi-inhibitory concentration of the compound acting on cell was calculated using GradPad Prism 5 software according to the measured cell growth inhibition rate. […]"}, "[16]": {"test_system": "normal human embryo lung cells (WI-38 and HFL-1)", "assay": "Growth of normal human embryo lung cells (summary)"}}}
{"smiles": "CC(C)Oc1ccc(NC(=O)c2cc3scnc3[nH]2)cc1", "note": "[Compound I-2]", "values": [{"measurement": "inhibition at 10 µM", "setting": "[1]; compound concentration 10 μM, 48 h, MTS, read-out: Inhibition rate against A549 at 10 μM (%)", "result": 81.9, "unit": "%"}, {"measurement": "IC50", "setting": "[1]; growth inhibition", "result": 0.03, "unit": "µM"}, {"measurement": "inhibition at 10 µM", "setting": "[2]", "result": 61.7, "unit": "%"}, {"measurement": "inhibition at 10 µM", "setting": "[3]", "result": 60.1, "unit": "%"}, {"measurement": "inhibition at 10 µM", "setting": "[4]", "result": 23.1, "unit": "%"}, {"measurement": "inhibition at 10 µM", "setting": "[5]", "result": "< 0", "unit": "%"}, {"measurement": "inhibition at 10 µM", "setting": "[6]", "result": 19.4, "unit": "%"}, {"measurement": "inhibition at 10 µM", "setting": "[7]", "result": 22.2, "unit": "%"}, {"measurement": "IC50", "setting": "[8]", "result": 0.057, "unit": "µM"}, {"measurement": "IC50", "setting": "[9]", "result": 0.008, "unit": "µM"}, {"measurement": "IC50", "setting": "[10]", "result": 5.62, "unit": "µM"}, {"measurement": "IC50", "setting": "[11]", "result": 8.59, "unit": "µM"}, {"measurement": "IC50", "setting": "[12]", "result": 0.221, "unit": "µM"}, {"measurement": "IC50", "setting": "[13]", "result": 2.46, "unit": "µM"}, {"measurement": "IC50", "setting": "[14]", "result": 0.28, "unit": "µM"}, {"measurement": "IC50", "setting": "[15]", "result": "0.008 to 0.28", "unit": "µM"}, {"measurement": "IC50", "setting": "[16]", "result": "> 5", "unit": "µM"}]}
